Measured values: EP0416609A2, “Benzo[b]thiophene-containing lipoxygenase-inhibiting compounds” (ABBOTT LABORATORIES, priority 1989, dated 1991)

target: T1, 5-lipoxygenase (Rattus norvegicus, UniProt P12527); assay: Lipoxygenase IC50 determination (20,000xg supernatant from homogenized RBL-1 cells, radiolabelled arachidonic acid); assay type: biochemical; conditions: 20,000xg supernatant from 6x10⁴ homogenized RBL-1 cells, 2% DMSO vehicle, triplicate incubations; read-out: IC₅₀
T1 construct: containing the 20,000xg supernatant from 6x10⁴ homogenized RBL-1 cells; endogenous in cells; host or cells: RBL-1 cells (20,000xg supernatant of homogenate)
T1 sequence (P12527 1-673): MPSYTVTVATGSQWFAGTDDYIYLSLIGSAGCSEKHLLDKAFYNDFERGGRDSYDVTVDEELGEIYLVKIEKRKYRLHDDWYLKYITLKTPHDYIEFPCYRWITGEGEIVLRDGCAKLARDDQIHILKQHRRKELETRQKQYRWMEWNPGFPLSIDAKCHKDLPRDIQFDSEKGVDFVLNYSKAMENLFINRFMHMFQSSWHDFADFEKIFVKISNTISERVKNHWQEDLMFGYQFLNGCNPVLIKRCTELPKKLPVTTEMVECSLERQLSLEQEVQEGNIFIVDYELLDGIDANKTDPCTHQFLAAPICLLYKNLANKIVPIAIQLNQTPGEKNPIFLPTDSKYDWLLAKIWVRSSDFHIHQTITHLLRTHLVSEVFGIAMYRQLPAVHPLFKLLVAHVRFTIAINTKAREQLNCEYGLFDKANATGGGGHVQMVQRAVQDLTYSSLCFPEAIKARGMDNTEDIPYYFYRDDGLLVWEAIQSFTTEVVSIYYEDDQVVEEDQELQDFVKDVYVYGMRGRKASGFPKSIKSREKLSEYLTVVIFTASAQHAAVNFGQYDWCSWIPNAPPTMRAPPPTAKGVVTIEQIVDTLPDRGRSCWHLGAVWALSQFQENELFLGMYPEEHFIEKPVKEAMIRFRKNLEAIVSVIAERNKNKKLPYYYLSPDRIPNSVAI
Description: Lipoxygenase IC₅₀ Determination
Reactions were initiated by addition of radiolabelled arachidonic acid and terminated by acidification and ether extraction. Reaction products were separated from nonconverted substrate by thin layer chromatography and measured by liquid scintillation spectroscopy. All treatments were evaluated in triplicate incubations. […] ICso values and 95% confidence limits were computed by linear regression analysis of percentage inhibition versus log inhibitor concentration plots.

IC50 [nM]	Compound
1500	CC(=O)NC(=O)N(O)C(C)c1cc2ccccc2s1 (stereo not shown) [Example 10, N′-acetyl-N-hydroxy-N-[1-(benzo[b]thien-2-yl)ethyl]urea;]
600	CC(c1cc2ccccc2s1)N(OC(=O)CCC(=O)O)C(N)=O (stereo not shown) [Example 9, N-succinyloxy-N-[1-(benzo[b]thien-2-yl)ethyl]urea]
1100	CC(=O)N(O)C(C)c1cc2ccccc2s1 (stereo not shown) [Example 1, N-hydroxy-N-(1-benzol[b]thien-2-ylethyl)acetamide]
1000	CC(c1cc2ccccc2s1)N(O)C(=O)NC(N)=O (stereo not shown) [Example 11]
1200	COC(=O)ON(C(N)=O)C(C)c1cc2ccccc2s1 (stereo not shown) [Example 5, N-methoxycarbonyloxy-N-[1-(benzol[b]thien-2-yl)ethyl]urea]
1500	CCOC(=O)ON(C(N)=O)C(C)c1cc2ccccc2s1 (stereo not shown) [Example 4, N-ethoxycarbonyloxvyN-[1-(benzo[b]thien-2-yl)ethyl]urea]

Compound	IC50 [nM]
CC(=O)ON(C(N)=O)C(C)c1cc2ccccc2s1 (stereo not shown) [Example 3, N-acetoxy-N-[1-(benzol[b]thien-2-yl)ethyl]urea]	2100
